According to patent publication US20240228457A1, “AKT3 MODULATORS” (Georgiamune Inc., priority 2020, published 2024):

These compounds were tested against T1, Akt3 (Homo sapiens, UniProt Q9Y243) (assay: Akt3 inhibition activity of selected compounds).
T1 construct: endogenous in cells; host or cells: human CD4+/CD45RA+/CD25- naive T cells under iTreg induction conditions
Assay type: cell-based

T1 sequence (Q9Y243 whole entry): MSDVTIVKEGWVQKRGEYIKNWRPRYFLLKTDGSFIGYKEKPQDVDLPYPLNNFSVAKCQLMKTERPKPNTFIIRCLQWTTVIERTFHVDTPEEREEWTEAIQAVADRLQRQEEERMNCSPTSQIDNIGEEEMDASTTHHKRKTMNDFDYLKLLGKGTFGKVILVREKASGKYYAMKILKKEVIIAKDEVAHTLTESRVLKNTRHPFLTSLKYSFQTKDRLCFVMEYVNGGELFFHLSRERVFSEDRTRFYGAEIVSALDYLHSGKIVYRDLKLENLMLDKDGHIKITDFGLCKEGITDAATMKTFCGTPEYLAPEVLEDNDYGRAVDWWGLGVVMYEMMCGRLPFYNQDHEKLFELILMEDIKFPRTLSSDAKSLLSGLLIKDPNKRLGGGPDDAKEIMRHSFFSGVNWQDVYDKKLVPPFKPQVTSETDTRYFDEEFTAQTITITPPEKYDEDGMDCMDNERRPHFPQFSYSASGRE

Row | IC50 [µM] | Compound
1 | < 2 | Cc1c(Nc2ccc(C(=O)Nc3cccc(Nc4ccncc4)c3)cc2)ccnc1N [Compound 21, 4-(2-amino-3-methylpyridin-4-ylamino)-N-(3-(pyridin-4-ylamino)phenyl)benzamide]
2 | < 2 | Cc1cccc2nccc(Nc3cccc(C(=O)Nc4ccc(Nc5ccncc5)cc4)c3)c12 [Compound 18, 3-((5-methylquinolin-4-yl)amino)-N-(4-(pyridin-4-ylamino)phenyl)benzamide]
3 | < 2 | O=C(Nc1ccc(Nc2ccncc2)cc1)c1cccc(Nc2ccnc3ccc(F)cc23)c1 [Compound 3, 3-((6-fluoroquinolin-4-yl)amino)-N-(4-(pyridin-4-ylamino)phenyl)benzamide]
4 | < 5 | Nc1cc(Nc2ccc(C(=O)Nc3cccc(Nc4ccncc4)c3)cc2)ccn1 [Compound 19, 4-(2-aminopyridin-4-ylamino)-N-(3-(pyridin-4-ylamino)phenyl)benzamide]
5 | < 5 | Cc1cc(Nc2ccc(C(=O)Nc3cccc(Nc4ccncc4)c3)cc2)cc(N)n1 [Compound 20, 4-(2-amino-6-methylpyridin-4-ylamino)-N-(3-(pyridin-4-ylamino)phenyl)benzamide]

Each compound was assayed against T1, Akt3 (assay: Akt3 activation activity of selected compounds).
Assay type: cell-based

Row | EC50 [µM] | Compound
6 | < 5 | N#Cc1ccc2nccc(Nc3cccc(C(=O)Nc4ccc(Nc5ccncc5)cc4)c3)c2c1 [Compound 2, 3-((6-cyanoquinolin-4-yl)amino)-N-(4-(pyridin-4-ylamino)phenyl)benzamide]
